Measured values taken from US20030199516A1, “Methods of treating infection by drug resistant bacteria” (Genesoft, Inc., priority 2001, published 2003).

How the values were obtained:
[1] = system: S. aureus ATCC 27660; assay: NCCLS broth microdilution MIC; type: cell-based, Staphylococcus aureus; details: Col. A = S. aureus ATCC 27660 (MRSA)
Description: (§1) In vitro antibacterial activity data were collected for the following Gram-positive bacteria: Staphylococcus aureus (ATCC 27660, ATCC 33591 and ATCC 43300, all methicillin resistant strains (MRSA's)); Streptococcus pneumoniae (ATCC 51422, a penicillin resistant strain (PRSP)), Enterococcus faecium (ATCC 51559, and/or a vancomycin resistant strain (VRE)). Additionally, antifungal activity data were collected for Candida albicans (ATCC 38247). Minimal inhibition concentrations (MIC's) were determined using the National Committee for Clinical Laboratory Standards (NCCLS) broth microdilution assay in microtiter plates, as set forth in: (1) the guidelines of the National Committee for Clinical Laboratory Standards (NCCLS) Document M7-A4 (NCCLS, 1997); (2) the guidelines of the National Committee for Clinical Laboratory Standards (NCCLS) Document M11-A4 (NCCLS, 1997); and (3) the guidelines and reference method of the National Committee for Clinical Laboratory Standards (NCCLS) Document M27-T (NCCLS, 1995). For antifungal essays, the method recommended in Murray, PR., 1995 Manual of Clinical Microbiology (ASM Press, Washington, D.C.), was employed.

[2] = system: S. aureus ATCC 33591; assay: NCCLS broth microdilution MIC; type: cell-based, Staphylococcus aureus; details: Col. B = S. aureus ATCC 33591 (MRSA)
Description: as §1

[3] = system: Enterococcus faecium ATCC 51559; assay: NCCLS broth microdilution MIC; type: cell-based; details: Col. D = E. faecium ATCC 51559 (VRE)
Description: as §1

[4] = system: Streptococcus pneumoniae ATCC 51422; assay: NCCLS broth microdilution MIC; type: cell-based; details: Col. E = S. pneumoniae ATCC 51422 (PRSP)
Description: as §1

[5] = system: Candida albicans ATCC 38247; assay: Antifungal MIC; type: cell-based; details: Col. F = C. albicans ATCC 38247
Description: as §1

[6] = target: target sequence AAAAAGACAAAAA (351 bp fragment, Plasmid A); assay: Quantitative DNase I footprint titration; type: binding; details: 351 bp A, 22° C., pH 7.0, read-out: Dissociation Constant Kd
Description: (§2) Compounds (1) through (20) according to this invention were screened for their ability to bind to specified DNA target sequences, using DNase I footprinting. Generally, the procedure described in Dervan, WO 98/50582 (1998), was followed.
(§3) Three double stranded circular plasmids A, B, and C were used to prepare double stranded DNA-binding probes containing the target sequences for the DNase I footprint titration experiments. Plasmids A, B, and C had nucleotide sequences given by SEQ ID NO. I, SEQ ID NO. II, and SEQ ID NO. III, respectively.
(§4) The 3′-P32 end-labeled EcoRI/PvuII fragments from each plasmid were prepared by digesting the plasmids with EcoRI and PvuII with simultaneous fill-in using Sequenase v. 2.0, [alpha-P32]-deoxyadenosine-5′-triphosphate, and [alpha-P32]-thymidine-5′-triphosphate, and isolating the cloned fragments by nondenaturing gel electrophoresis. A and G sequencing reactions were carried out as described (See Maxam and Gilbert, Methods Enzymol., 1980, 65, 499-560; Iverson and Dervan, Methods Enzymol., 1987, 15, 7823-7830; Sambrook et al., 1989, Molecular Cloning, 2nd ed., Cold Spring Harbor Laboratory Press: Cold Spring Harbor, N.Y.) Standard methods were used for all DNA manipulations (Sambrook et al., ibid.) The cut sites for EcoRI and PvuII are indicated by bars in the respective maps of Plasmids A, B, and C in FIGS. 5, 6, and 7.
(§5) The 351 base pair dsDNA restriction fragment (SEQ ID NO. IV) of Plasmid A contained the target sequences AAAAAGCAAAAA, AAAAAGACAAAAA, and AAAAAGTACAAAAA. The 310 base pair dsDNA restriction fragment (SEQ ID NO. V) of Plasmid B contained the target sequences AGTACT, AATACT, and ATTACT. The 352 base pair dsDNA restriction fragment (SEQ ID NO. VI) of Plasmid C contained the target sequences TGACAATTAAT, GACAATTAATCA, AATTAATCAT, ACAATTA, and ACAATTAAT. These fragments were used for quantitative DNase I footprinting experiments. Compounds used in the method of this invention bind to at least one of the target sites with a equal to or less than 100 nM, preferably equal to or less than 50 nM, and more preferably equal to or less than 20 nM. The target sequences were selected for the identity with, or similarity to, promoter sites for bacterial genes.
(§6) Quantitative DNase I footprint titration experiments were carried out as described previously (Dervan, WO 98/50582, 1998) with the following changes. All reactions were carried out in a total volume of 400 μL, with compound stock solution or water added to 15,000 cpm radiolabeled restriction fragment affording final solution conditions of 10 mM Tris HCl, 10 mM KCl, 10 mM MgCl2, 5 mM CaCl2, pH 7.0 and 0.01 nM, 0.1 nM, 1.0 nM, 10.0 nM compound or no compound for reference lanes. The compounds were allowed to equilbrate at 22° C. for 16 h. Footprinting reactions were initiated with addition of 10 μL of a DNase I stock solution (at the appropriate concentration to give ˜50% intact DNA) containing 1 mM DTT and allowed to proceed for 7 min at 22° C. The reactions were stopped, ethanol precipitated, resuspended in loading buffer, heat denatured, and placed on ice as described previously (Dervan WO 98/50582, 1998). The reaction products were separated on a precast 8% polyacrylamide denaturing sequencing Castaway gel with 32 preformed wells from Stratagene in 1×TBE at 2000 V. Gels were dried according to the manufacturer and exposed to a storage phosphor screen (Molecular Dynamics). Quantitation and data analysis were carried out as described in Dervan, WO 98/50582, 1998.

[7] = target: target sequence AAAAAGCAAAAA (351 bp fragment, Plasmid A); assay: Quantitative DNase I footprint titration; type: binding; details: 351 bp A, 22° C., pH 7.0, read-out: Dissociation Constant Kd
Description: as §2, §3, §4, §5, §6

[8] = target: target sequence TGACAATTAAT (352 bp fragment, Plasmid C); assay: Quantitative DNase I footprint titration; type: binding; details: 352 bp C, 22° C., pH 7.0, read-out: Dissociation Constant Kd
Description: as §2, §3, §4, §5, §6

[9] = target: target sequence AATACT (310 bp fragment, Plasmid B); assay: Quantitative DNase I footprint titration; type: binding; details: 310 bp B, 22° C., pH 7.0, read-out: Dissociation Constant Kd
Description: as §2, §3, §4, §5, §6

[10] = target: target sequence AATTAATCAT (352 bp fragment, Plasmid C); assay: Quantitative DNase I footprint titration; type: binding; details: 352 bp C, 22° C., pH 7.0, read-out: Dissociation Constant Kd
Description: as §2, §3, §4, §5, §6

[11] = target: target sequence ATTACT (310 bp fragment, Plasmid B); assay: Quantitative DNase I footprint titration; type: binding; details: 310 bp B, 22° C., pH 7.0, read-out: Dissociation Constant Kd
Description: as §2, §3, §4, §5, §6

| SMILES | Minimum Inhibitory Concentration (MIC) [1] | Minimum Inhibitory Concentration (MIC) [2] | Minimum Inhibitory Concentration (MIC) [3] | Minimum Inhibitory Concentration (MIC) [4] | Minimum Inhibitory Concentration (MIC) [5] [µg/mL] | Kd [6] [nM] | Kd [7] [nM] | Kd [8] [nM] | Kd [9] [nM] | Kd [10] [nM] | Kd [11] [nM] |
| --- | --- | --- | --- | --- | --- | --- | --- | --- | --- | --- | --- |
| CN(C)CCCNC(=O)CCNC(=O)c1cc(NC(=O)c2cc(NC(=O)CCNC(=O)c3cc(NC(=O)c4cc(NC(=O)c5cc(Br)c(Br)s5)cn4C)cn3C)cn2C)cn1C [Compound 1] | ++ (++ = MIC ≦ 1) | + (+ = MIC ≦ 2) | − (− = MIC > 2) | ++ (++ = MIC ≦ 1) | >32 | 0.01 | 0.01 | 2 | – | – | – |
| Cn1cc(NC(=O)c2cc(NC(=O)c3cc(NC(=O)c4ccc(Cl)cc4F)c[nH]3)cn2C)cc1C(=O)NCCN1CCOCC1 [Compound 10] | + (+ = MIC ≦ 2) | − (− = MIC > 2) | + (+ = MIC ≦ 2) | − (− = MIC > 2) | 8 to 32 | – | – | – | 5 | 1 | – |
| Cc1cc(NC(=O)c2cc(NC(=O)c3cc(NC(=O)c4nsc(NCCN5CCCCC5)c4Cl)cn3C)cn2C)sn1 [Compound 13] | ++ (++ = MIC ≦ 1) | – | – | – | >32 | – | – | – | – | 10 | 5 |
